Active and inactive are the calls of the source. The calls are words filed in the database; no cut-off is given here.
Legend:
[1] = test system: Mus musculus; experiment: Antiinflammatory activity in DSS-induced male C57BL/6 mouse model of inflammatory bowel disease assessed as reduction in diarrhea at 22.5 to 45 mg/kg/day, po via gavage measured upto 14 days; assay type: functional, organism-based; conditions: dose 22.5-45 mg/kg/day, time <= 14.0 day
[2] = Toxicity in female Kunming mouse assessed as effect on spleen to body weight ratio at 100 to 500 mg/kg/day, po measured after 5 weeks; assay type: organism-based; conditions: in vivo, 840 h, dose 100-500 mg/kg/day
[3] = Toxicity in male Kunming mouse assessed as effect on heart at 100 to 500 mg/kg/day, po measured after 5 weeks by H and E staining based analysis; assay type: organism-based; conditions: in vivo, 840 h, dose 100-500 mg/kg/day
[4] = Acute toxicity in male Kunming mouse assessed as effect on heart 5 g/Kg, po measured after 5 weeks; assay type: organism-based; conditions: in vivo, 5000 mg/kg, 840 h
[5] = Toxicity in male Kunming mouse assessed as lethal dose administered as po measured after 5 weeks; assay type: organism-based; conditions: in vivo
[6] = test system: Mus musculus; experiment: Antiinflammatory activity in DSS-induced male C57BL/6 mouse model of inflammatory bowel disease assessed as reduction of bloody stool at 22.5 to 45 mg/kg/day, po via gavage measured upto 14 days; assay type: functional, organism-based; conditions: dose 22.5-45 mg/kg/day, time <= 14.0 day
[7] = Toxicity in female Kunming mouse assessed as effect on TBIL level in serum at 100 to 500 mg/kg/day, po measured after 5 weeks; assay type: organism-based; conditions: in vivo, 840 h, dose 100-500 mg/kg/day
[8] = Acute toxicity in female Kunming mouse assessed as effect on body weight loss 5 g/Kg, po measured after 5 weeks; assay type: organism-based; conditions: in vivo, 5000 mg/kg, 840 h
[9] = Toxicity in male Kunming mouse assessed as effect on ALT level in serum at 100 to 500 mg/kg/day, po measured after 5 weeks; assay type: organism-based; conditions: in vivo, 840 h, dose 100-500 mg/kg/day
[10] = Toxicity in male Kunming mouse assessed as effect on CREA level in serum at 100 to 500 mg/kg/day, po measured after 5 weeks; assay type: organism-based; conditions: in vivo, 840 h, dose 100-500 mg/kg/day
[11] = Toxicity in male Kunming mouse assessed as change in food intake at 100 to 500 mg/kg/day, po measured after 5 weeks; assay type: organism-based; conditions: in vivo, 840 h, dose 100-500 mg/kg/day
[12] = Toxicity in male Kunming mouse assessed as effect on […] level in serum at 100 to 500 mg/kg/day, po measured after 5 weeks; assay type: organism-based; conditions: in vivo, 840 h, dose 100-500 mg/kg/day
[13] = Toxicity in male Kunming mouse assessed as effect on Cl inorganic salt level in serum at 100 to 500 mg/kg/day, po measured after 5 weeks; assay type: organism-based; conditions: in vivo, 840 h, dose 100-500 mg/kg/day
[14] = Toxicity in male Kunming mouse assessed as effect on T-CHO level in serum at 100 to 500 mg/kg/day, po measured after 5 weeks; assay type: organism-based; conditions: in vivo, 840 h, dose 100-500 mg/kg/day
[15] = Metabolic stability in dog plasma assessed as half life at pH 7.4 measured upto 60 mins by HPLC-MS analysis; assay type: ADME, cell-free, Canis lupus familiaris
[16] = Toxicity in female Kunming mouse assessed as effect on TP level in serum at 100 to 500 mg/kg/day, po measured after 5 weeks; assay type: organism-based; conditions: in vivo, 840 h, dose 100-500 mg/kg/day
[17] = Toxicity in female Kunming mouse assessed as effect on spleen at 100 to 500 mg/kg/day, po measured after 5 weeks by H and E staining based analysis; assay type: organism-based; conditions: in vivo, 840 h, dose 100-500 mg/kg/day
[18] = Toxicity in female Kunming mouse assessed as effect on ALT level in serum at 100 to 500 mg/kg/day, po measured after 5 weeks; assay type: organism-based; conditions: in vivo, 840 h, dose 100-500 mg/kg/day
[19] = Toxicity in female Kunming mouse assessed as effect on CREA level in serum at 100 to 500 mg/kg/day, po measured after 5 weeks; assay type: organism-based; conditions: in vivo, 840 h, dose 100-500 mg/kg/day
[20] = Toxicity in male Kunming mouse assessed as effect on BUN level in serum at 100 to 500 mg/kg/day, po measured after 5 weeks; assay type: organism-based; conditions: in vivo, 840 h, dose 100-500 mg/kg/day
[21] = Acute toxicity in female Kunming mouse assessed as effect on liver 5 g/Kg, po measured after 5 weeks; assay type: organism-based; conditions: in vivo, 5000 mg/kg, 840 h
[22] = Toxicity in male Kunming mouse assessed as effect on AST level in serum at 100 to 500 mg/kg/day, po measured after 5 weeks; assay type: organism-based; conditions: in vivo, 840 h, dose 100-500 mg/kg/day
[23] = Toxicity in male Kunming mouse assessed as effect on kidney at 100 to 500 mg/kg/day, po measured after 5 weeks by H and E staining based analysis; assay type: organism-based; conditions: in vivo, 840 h, dose 100-500 mg/kg/day
[24] = Acute toxicity in male Kunming mouse assessed as effect on spleen 5 g/Kg, po measured after 5 weeks; assay type: organism-based; conditions: in vivo, 5000 mg/kg, 840 h
[25] = Toxicity in female Kunming mouse assessed as effect on liver at 100 to 500 mg/kg/day, po measured after 5 weeks by H and E staining based analysis; assay type: organism-based; conditions: in vivo, 840 h, dose 100-500 mg/kg/day
[26] = Toxicity in male Kunming mouse assessed as effect on TP level in serum at 100 to 500 mg/kg/day, po measured after 5 weeks; assay type: organism-based; conditions: in vivo, 840 h, dose 100-500 mg/kg/day
[27] = Toxicity in male Kunming mouse assessed as effect on liver at 100 to 500 mg/kg/day, po measured after 5 weeks by H and E staining based analysis; assay type: organism-based; conditions: in vivo, 840 h, dose 100-500 mg/kg/day
[28] = Toxicity in male Kunming mouse assessed as effect on spleen at 100 to 500 mg/kg/day, po measured after 5 weeks by H and E staining based analysis; assay type: organism-based; conditions: in vivo, 840 h, dose 100-500 mg/kg/day
[29] = test system: Mus musculus; experiment: Antiinflammatory activity in DSS-induced male C57BL/6 mouse model assessed as inhibition of IL-6 level in colon at 50 to 100 microM/Kg; assay type: functional, organism-based; conditions: dose 50-100 µM/Kg
[30] = test system: Mus musculus; experiment: Antiinflammatory activity in DSS-induced male C57BL/6 mouse model of inflammatory bowel disease assessed as reduction in weight loss at 15 to 60 mg/kg/day, po via gavage measured upto 14 days; assay type: functional, organism-based; conditions: dose 15-60 mg/kg/day, time <= 14.0 day
[31] = test system: Mus musculus; experiment: Antiinflammatory activity in DSS-induced male C57BL/6 mouse model assessed as inhibition of IL-22 level in colon at 50 to 200 microM/Kg; assay type: functional, organism-based; conditions: dose 50-200 µM/Kg
[32] = organism: Mus musculus; experiment: Antiinflammatory activity in DSS-induced male C57BL/6 mouse model of inflammatory bowel disease assessed as reduction in JNK level; assay type: functional, organism-based
[33] = test system: Mus musculus; experiment: Antiinflammatory activity in DSS-induced male C57BL/6 mouse model of inflammatory bowel disease assessed as reduction of bloody stool at 15 to 60 mg/kg/day, po via gavage measured upto 14 days; assay type: functional, organism-based; conditions: dose 15-60 mg/kg/day, time <= 14.0 day
[34] = test system: Mus musculus; experiment: Antiinflammatory activity in DSS-induced male C57BL/6 mouse model of inflammatory bowel disease assessed as amelioration of structural loss of colon at 50 to 200 microM/Kg by H and E staining based analysis; assay type: functional, organism-based; conditions: dose 50-200 µM/Kg
[35] = test system: Mus musculus; experiment: Antiinflammatory activity in DSS-induced male C57BL/6 mouse model assessed as increase in IL-10 level in colon at 50 to 200 microM/Kg; assay type: functional, organism-based; conditions: dose 50-200 µM/Kg
[36] = test system: Mus musculus; experiment: Antiinflammatory activity in DSS-induced male C57BL/6 mouse model of inflammatory bowel disease assessed as inhibition of MPO expression at 50 to 200 microM/Kg, po by immunohistochemical analysis; assay type: functional, organism-based; conditions: dose 50-200 µM/Kg
[37] = test system: Mus musculus; experiment: Antiinflammatory activity in DSS-induced male C57BL/6 mouse model assessed as inhibition of TNF-alpha level in colon at 50 to 200 microM/Kg; assay type: functional, organism-based; conditions: dose 50-200 µM/Kg
[38] = organism: Mus musculus; experiment: Antiinflammatory activity in DSS-induced male C57BL/6 mouse model of inflammatory bowel disease assessed as reduction in MYD88 level; assay type: functional, organism-based
[39] = organism: Mus musculus; experiment: Antiinflammatory activity in DSS-induced male C57BL/6 mouse model of inflammatory bowel disease assessed as reduction in IRF5 level; assay type: functional, organism-based

CC(=O)OC[C@H]1O[C@@H](OC2=C(C)OC(=C(C)C)C2=O)[C@H](OC(C)=O)[C@@H](OC(C)=O)[C@@H]1OC(C)=O
Activity [1]: Active
Activity [2]: Non-toxic
Activity [3]: Non-toxic
Activity [4]: Non-toxic
LD50 at 840 h [5]: > 500 mg/kg
Activity [6]: Active
Activity [7]: Non-toxic
Activity [8]: Non-toxic
Activity [9]: Non-toxic
Activity [10]: Non-toxic
Activity [11]: Non-toxic
Activity [12]: Non-toxic
Activity [13]: Non-toxic
Activity [14]: Non-toxic
half-life [15]: 32.5 min
Activity [16]: Non-toxic
Activity [17]: Non-toxic
Activity [18]: Non-toxic
Activity [19]: Non-toxic
Activity [20]: Non-toxic
Activity [21]: Non-toxic
Activity [22]: Non-toxic
Activity [23]: Non-toxic
Activity [24]: Non-toxic
Activity [25]: Non-toxic
Activity [26]: Non-toxic
Activity [27]: Non-toxic
Activity [28]: Non-toxic
Activity [29]: Active

CC(C)=C1OC(C)=C(O[C@@H]2O[C@H](CO)[C@@H](O)[C@H](O)[C@H]2O)C1=O
Activity [30]: Active
Activity [31]: Active
Activity [32]: Active
Activity [33]: Active
Activity [34]: Active
Activity [35]: Active
Activity [36]: Active
Activity [37]: Active
Activity [38]: Active
Activity [39]: Active
